Tests used:
Assay type in all cases: in vivo
[1] = tested on: Cowpea Aphid (Aphis craccivora); experiment: Cowpea aphid test, sprayed potted cowpea plants; details: 500 ppm spray on infested cowpea plants, after 72 hours, read-out: mortality in comparison with untreated controls
Experimental: B.2 Cowpea Aphid (Aphis craccivora)
The active compound was dissolved at the desired concentration in a mixture of 1:1 (vol:vol) distilled water: acetone. Surfactant (Alkamuls® EL 620) was added at a rate of 0.1% (vol/vol). The test solution was prepared at the day of use.
Potted cowpea plants were colonized with approximately 50-100 aphids of various stages by manually transferring a leaf tissue cut from infested plant 24 hours before application. Plants were sprayed after the pest population has been recorded. Treated plants were maintained on light carts at about 28° C. Percent mortality was assessed after 72 hours.

[2] = tested on: vetch aphid (Megoura viciae); experiment: Vetch aphid contact/systemic test, broad bean leaf disks; details: foliar, 120 h, 2500 ppm sprayed onto leaf disks, adult aphids, 5 days, read-out: mortality in comparison with untreated controls
Experimental: B.3 Vetch Aphid (Megoura viciae)
For evaluating control of vetch aphid (Megoura viciae) through contact or systemic means the test unit consisted of 24-well-microtiter plates containing broad bean leaf disks.
The compounds were formulated using a solution containing 75% v/v water and 25% v/v DMSO. Different concentrations of formulated compounds were sprayed onto the leaf disks at 2.5 μl, using a custom built micro atomizer, at two replications.
After application, the leaf disks were air-dried and 5-8 adult aphids placed on the leaf disks inside the microtiter plate wells. The aphids were then allowed to suck on the treated leaf disks and incubated at about 23±1° C. and about 50±5% relative humidity for 5 days. Aphid mortality and fecundity was then visually assessed.

[3] = tested on: Rice Brown Plant Hopper (Nilaparvata lugens); experiment: Rice brown plant hopper test, sprayed rice seedlings; details: 500 ppm spray on rice seedlings, adults, after 72 hours, read-out: mortality in comparison with untreated controls
Experimental: B.6 Rice Brown Plant Hopper (Nilaparvata lugens)
(§1) Rice seedlings were cleaned and washed 24 hours before spraying. The active compounds was formulated in 50:50 acetone:water (vol:vol) and 0.1% vol/vol surfactant (EL 620) was added. Potted rice seedlings were sprayed with 5 ml test solution, air dried, placed in cages and inoculated with 10 adults. Treated rice plants were kept at about 28-29° C. and relative humidity of about 50-60%. Percent mortality was recorded after 72 hours.

[4] = tested on: green peach aphid (Myzus persicae); experiment: Green peach aphid systemic test, artificial diet in 96-well microtiter plates; details: 72 h, 2500 ppm in aphid diet, adult aphids, 3 days, read-out: mortality in comparison with untreated controls
From the text: B.1 Green Peach Aphid (Myzus persicae)
For evaluating control of green peach aphid (Myzus persicae) through systemic means, the test unit consisted of 96-well-microtiter plates containing liquid artificial diet under an artificial membrane.
The compounds were formulated using a solution containing 75% v/v water and 25% v/v DMSO. Different concentrations of formulated compounds were pipetted into the aphid diet, using a custom built pipetter, at two replications.
After application, 5-8 adult aphids were placed on the artificial membrane inside the microtiter plate wells. The aphids were then allowed to suck on the treated aphid diet and incubated at about 23±1° C. and about 50±5% relative humidity for 3 days. Aphid mortality and fecundity was then visually assessed.

[5] = tested on: Rice Green Leafhopper (Nephotettix virescens); experiment: Rice green leafhopper test, sprayed rice seedlings; details: 500 ppm spray on rice seedlings, adults, after 72 hours, read-out: mortality in comparison with untreated controls
Experimental: B.5 Rice Green Leafhopper (Nephotettix virescens)
as §1, with “compounds were” for “compounds was”, “acetone:water (vol:vol),” for “acetone:water (vol:vol)”, “620) wss” for “620) was”

[6] = tested on: Mediterranean fruitfly (Ceratitis capitata); experiment: Mediterranean fruitfly test, insect diet with eggs in microtiter plates; details: 120 h, 2500 ppm sprayed onto insect diet, egg and larval mortality, 5 days, read-out: mortality in comparison with untreated controls
Experimental: B.7 Mediterranean Fruitfly (Ceratitis capitata)
For evaluating control of Mediterranean fruitfly (Ceratitis capitata) the test unit consists of microtiter plates containing an insect diet and 50-80 C. capitata eggs.
The compounds were formulated using a solution containing 75% v/v water and 25% v/v DMSO. Different concentrations of formulated compounds were sprayed onto the insect diet at 5 μl, using a custom built micro atomizer, at two replications.
After application, microtiter plates were incubated at about 28±1° C. and about 80±5% relative humidity for 5 days. Egg and larval mortality was then visually assessed.

[7] = tested on: Orchid thrips (dichromothrips corbetti); experiment: Orchid thrips floral-immersion test; details: orchid flowers dipped, adult thrips, 72 hours after treatment, read-out: mortality in comparison with untreated controls
Experimental: B.4 Orchid thrips (dichromothrips corbetti)
Dichromothrips corbetti adults used for bioassay were obtained from a colony maintained continuously under laboratory conditions. For testing purposes, the test compound was diluted in a 1:1 mixture of acetone:water (vol:vol), plus 0.01% vol/vol Alkamuls® EL 620 surfactant.
Thrips potency of each compound was evaluated by using a floral-immersion technique. Plastic petri dishes were used as test arenas. All petals of individual, intact orchid flowers were dipped into treatment solution and allowed to dry. Treated flowers were placed into individual petri dishes along with about 20 adult thrips. The petri dishes were then covered with lids. All test arenas were held under continuous light and a temperature of about 28° C. for duration of the assay. After 3 days, the numbers of live thrips were counted on each flower, and along inner walls of each petri dish. The percent mortality was recorded 72 hours after treatment.

O=C(/C=C1\C=CC=CN1Cc1ccc(Cl)nc1)C(F)(F)F [E-1, (3E)-3-[1-[(6-chloro-3-pyridyl)methyl]-2-pyridylidene]-1,1,1-trifluoro-propan-2-one]
≥ 75%: mortality at 500 ppm [1] | mortality at 2500 ppm [2] | mortality at 500 ppm [3] | mortality at 2500 ppm [4] | mortality at 500 ppm [5] | mortality at 2500 ppm [6] | mortality at 500 ppm [7]

Reference: patent US9334238B2, “N-substituted pyridinylidenes for combating animal pests” (BASF SE, priority 2012, dated 2016)
